Assay results as given in patent US11492348B2, “Tri-substituted aryl and heteroaryl derivatives as modulators of PI3-kinase and autophagy pathways” (Neuropore Therapies, Inc., priority 2018, dated 2022).
Structures can show the parent of a compound that is named as a salt.

Columns and labels:
mTor kinase = mTor kinase (Homo sapiens (Human), UniProt P42345); test: mTor assay (33P-ATP filter-binding kinase assay); type: biochemical; conditions: 2 hours at room temperature
Experimental: The substrate was prepared in base reaction buffer (20 mM Hepes (pH 7.5), 10 mM MgCl2, 1 mM EGTA, 0.02% Brij35, 0.02 mg/ml BSA, 0.1 mM Na3VO4, 2 mM DTT, 1% DMSO), and required cofactors were added to the substrate solution. The mTor kinase was delivered into the substrate solution, and the solution was gently mixed. Testing compounds were dissolved in 100% DMSO to specific concentration. The serial dilution was conducted by Integra Viaflo Assist in DMSO. The compounds were delivered into the kinase reaction mixture by Acoustic technology (Echo550; nanoliter range), and the reaction mixture was incubated for 20 min at room temperature. Then, 33P-ATP (Specific activity 10 μCi/μl) was delivered into the reaction mixture to initiate the reaction. The reaction mixture was incubated for 2 hours at room temperature. Radioactivity was detected by a filter-binding method. Kinase activity data were expressed as the percent remaining kinase activity in test samples compared to vehicle (dimethyl sulfoxide) reactions. IC50 values and curve fits were obtained using Prism (GraphPad Software).

[1] = system: (Ser-473) pAKT in B103 (Rat Neuroblastoma) cells; test: pAKT protocol: loss of (Ser-473) pAKT by AlphaScreen in insulin-stimulated B103 cells; type: cell-based; conditions: (Ser-473) pAKT/total AKT IC50, 2-hour pretreatment, 2.5 μg/mL insulin 20 minutes
Experimental: Inhibition of the PI3K-AKT-mTOR pathway was measured by quantifying the loss of (Ser-473) pAKT using AlphaScreen (Perkin Elmer). B103 (Rat Neuroblastoma) cells were seeded in serum containing medium (High Glucose DMEM (-Phenol Red)+10% FBS+2× Glutamax+1 mM Sodium Pyruvate+10 mM HEPES+1× Non-Essential Amino Acids+1× Pen/Strep) on a 96-well tissue culture treated plate and grown for 20 hours. Cells were then serum starved in serum free medium (High Glucose DMEM (-Phenol Red)+1× Glutamax+1 mM Sodium Pyruvate+1× Pen/Strep) for 6 hours prior to a 2-hour pretreatment with inhibitors of the pathway, including reference inhibitor LY294002. These inhibitors were prepared at a 200× final concentration as a 6-point, 1:3 serial dilution in DMSO series, with DMSO as the 7th point. The inhibitors were then diluted in experimental medium (High Glucose DMEM (-Phenol Red)+1× Glutamax+1 mM Sodium Pyruvate+1× Pen/Strep+25 mM HEPES+0.1% BSA) and combined with the cells at 1× final concentration in 0.5% DMSO. […] Cells were promptly lysed using Perkin Elmer proprietary lysis buffer and the (Ser-473) pAKT and total AKT contained in the lysate was measured by AlphaScreen. In AlphaScreen, donor beads were coated with streptavidin to capture one of the antibodies, which is biotinylated. Acceptor beads were coated with Protein A to immobilize the other antibody. In the presence of target protein, the two antibodies bring the donor and acceptor beads close together, generating signal. The amount of light emission is directly proportional to the amount of target protein present in the sample. For each inhibitor tested: the ratio of measured (Ser-473) pAKT/totalAKT was plotted in GraphPad Prism as a 7-point, non-linear regression, 4-parameter curve with bottom constrained to reference control bottom and unconstrained top anchored to DMSO.

PI3Kα = PI3Kα (Homo sapiens (Human), UniProt P42336); test: Inhibition of PI3Kα (ADP-Glo kinase activity assay, ATP to ADP conversion); type: biochemical; conditions: 25 μM PIP2:PS, 60 μM ATP, 30 min reaction, luminescence
PI3Kα, sequence (P42336 whole entry): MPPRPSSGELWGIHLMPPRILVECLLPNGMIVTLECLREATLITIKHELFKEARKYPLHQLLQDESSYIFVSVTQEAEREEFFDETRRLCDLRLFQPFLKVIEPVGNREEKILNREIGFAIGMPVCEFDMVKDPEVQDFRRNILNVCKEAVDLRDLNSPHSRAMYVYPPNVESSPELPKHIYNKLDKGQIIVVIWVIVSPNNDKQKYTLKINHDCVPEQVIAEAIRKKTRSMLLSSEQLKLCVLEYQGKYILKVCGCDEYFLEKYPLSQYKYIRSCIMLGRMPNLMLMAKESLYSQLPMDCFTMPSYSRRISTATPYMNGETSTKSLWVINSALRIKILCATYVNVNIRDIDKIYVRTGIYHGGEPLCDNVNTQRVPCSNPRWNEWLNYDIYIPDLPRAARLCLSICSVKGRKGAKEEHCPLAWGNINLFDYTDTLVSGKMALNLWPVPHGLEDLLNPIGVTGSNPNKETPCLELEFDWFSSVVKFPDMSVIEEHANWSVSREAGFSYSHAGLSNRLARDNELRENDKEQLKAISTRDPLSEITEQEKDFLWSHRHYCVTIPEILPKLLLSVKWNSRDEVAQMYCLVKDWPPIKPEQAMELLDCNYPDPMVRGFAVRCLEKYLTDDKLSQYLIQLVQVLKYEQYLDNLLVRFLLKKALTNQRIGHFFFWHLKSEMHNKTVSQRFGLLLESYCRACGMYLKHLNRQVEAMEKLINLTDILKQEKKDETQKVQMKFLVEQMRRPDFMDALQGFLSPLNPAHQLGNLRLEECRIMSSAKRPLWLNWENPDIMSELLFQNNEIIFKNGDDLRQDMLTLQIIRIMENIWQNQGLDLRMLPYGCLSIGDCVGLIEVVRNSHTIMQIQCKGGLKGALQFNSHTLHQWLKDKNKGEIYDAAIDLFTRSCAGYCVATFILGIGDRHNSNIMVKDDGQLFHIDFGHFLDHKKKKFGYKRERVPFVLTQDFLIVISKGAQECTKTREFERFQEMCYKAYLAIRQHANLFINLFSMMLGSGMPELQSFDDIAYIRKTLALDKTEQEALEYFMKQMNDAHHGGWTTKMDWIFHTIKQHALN
PI3Kα, sequence (P27986 whole entry partner): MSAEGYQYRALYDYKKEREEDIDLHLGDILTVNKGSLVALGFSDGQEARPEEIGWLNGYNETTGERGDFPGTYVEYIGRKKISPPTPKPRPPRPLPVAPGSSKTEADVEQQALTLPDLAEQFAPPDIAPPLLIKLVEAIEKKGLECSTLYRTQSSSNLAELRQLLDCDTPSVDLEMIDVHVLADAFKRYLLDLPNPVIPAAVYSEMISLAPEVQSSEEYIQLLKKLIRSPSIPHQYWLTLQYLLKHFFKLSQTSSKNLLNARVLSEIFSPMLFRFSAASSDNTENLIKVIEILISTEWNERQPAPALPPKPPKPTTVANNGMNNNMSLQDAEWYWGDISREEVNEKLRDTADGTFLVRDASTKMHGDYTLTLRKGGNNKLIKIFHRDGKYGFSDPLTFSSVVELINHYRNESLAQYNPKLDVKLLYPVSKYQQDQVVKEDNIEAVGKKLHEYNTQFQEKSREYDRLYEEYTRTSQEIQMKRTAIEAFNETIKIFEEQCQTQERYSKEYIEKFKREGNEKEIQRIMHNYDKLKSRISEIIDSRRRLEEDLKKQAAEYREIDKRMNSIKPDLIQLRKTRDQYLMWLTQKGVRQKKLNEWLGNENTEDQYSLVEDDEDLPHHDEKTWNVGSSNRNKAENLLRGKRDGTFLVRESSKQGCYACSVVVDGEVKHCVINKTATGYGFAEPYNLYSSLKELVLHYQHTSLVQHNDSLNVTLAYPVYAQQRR
In short: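 Recombinant active PI3Kα (1.1 nM) in HEPES pH 7.5 buffer with 6 mM MgCl2 and 8 mM DTT was preincubated with compound for 0 or 3 h. The reaction ran for 30 min with 25 µM PIP2:PS and 60 µM ATP, and ADP formation was read by ADP-Glo luminescence. IC50 came from a 12-point, 1:3 series fitted with a 4-parameter model, bottom fixed to reference inhibitor controls and top floating.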

SMILES | IC50 (mTor kinase) [µM] | IC50 [1] [µM] | PI3Ka IC50 (PI3Kα) [µM] | IC50 (PI3Kα; read-out: PI3Ka IC50) [µM]
Nc1cc(C(F)(F)F)c(-c2cc(N3CCOCC3)cc(S(=O)(=O)Cc3ccccc3)c2)cn1 [Compound 32, 5-(3-(benzylsulfonyl)-5-morpholinophenyl)-4-(trifluoromethyl)pyridin-2-amine] | > 33 | 6.3 | 0.45 | 
Nc1ncc(-c2cc(N3CCOCC3)cc(S(=O)(=O)Cc3ccc(F)cc3F)c2)cn1 [Compound 26, 5-(3-((2,4-difluorobenzyl)sulfonyl)-5-morpholinophenyl)pyrimidin-2-amine] | 5.3 | 6.2 | 0.27 | 
Nc1ncc(-c2cc(N3CCOCC3)cc(S(=O)(=O)C3CCC(F)(F)CC3)c2)cn1 [Compound 88, 5-(3-((4,4-difluorocyclohexyl)sulfonyl)-5-morpholinophenyl)pyrimidin-2-amine] | 2.46 | 6.54 | 0.53 | 
N#Cc1ccc(S(=O)(=O)c2cc(-c3cnc(N)nc3C(F)(F)F)cc(N3CCOCC3)c2)cc1 [Compound 17, 4-((3-(2-amino-4-(trifluoromethyl)pyrimidin-5-yl)-5-morpholinophenyl)sulfonyl)benzonitrile] | 100 | 100 | 1.9 | 
O=S(=O)(Cc1ccc(F)cc1)c1cc(-c2cccc(O)c2)cc(N2CCOCC2)c1 [Compound 41, 3′-((4-fluorobenzyl)sulfonyl)-5′-morpholino-[1,1′-biphenyl]-3-ol] | 4.27 | 0.86 | 0.53 | 
CC(=O)N1CC(S(=O)(=O)c2cc(-c3cnc(N)nc3)cc(N3CCOCC3)c2)C1 [Compound 68, 1-(3-((3-(2-aminopyrimidin-5-yl)-5-morpholinophenyl)sulfonyl)azetidin-1-yl)ethan-1-one] | 1.21 | 4.66 | 0.047 | 
Nc1ncc(-c2cc(N3CCOCC3)cc(S(=O)(=O)CC3CCOC3)c2)cn1 (centres unmarked) [Compound 38, 5-(3-morpholino-5-(((tetrahydrofuran-3-yl)methyl)sulfonyl)phenyl)pyrimidin-2-amine] | 3.6 | 9.11 | 0.74 | 
CCNC(=O)N1CC(S(=O)(=O)c2cc(-c3cnc(N)nc3)cc(N3CCOCC3)c2)C1 [Compound 93, 3-((3-(2-aminopyrimidin-5-yl)-5-morpholinophenyl)sulfonyl)-N-ethylazetidine-1-carboxamide] | 0.87 | 5.44 | 0.088 | 
Nc1ncc(-c2cc(N3CCOCC3)cc(S(=O)(=O)C3CCOC3)c2)cn1 (centres unmarked) [Compound 51, 5-(3-morpholino-5-((tetrahydrofuran-3-yl)sulfonyl)phenyl)pyrimidin-2-amine] | 0.46 | 2.12 | 0.12 | 
Nc1ncc(-c2cc(N3CCOCC3)cc(S(=O)(=O)Cc3ccc4[nH]ccc4c3)c2)cn1 [Compound 56, 5-(3-(((1H-indol-5-yl)methyl)sulfonyl)-5-morpholinophenyl)pyrimidin-2-amine] | 6.15 | 19.8 | 0.26 | 
Nc1ncc(-c2cc(N3CCOCC3)cc(S(=O)(=O)c3ccc(OC(F)(F)F)cc3)c2)cn1 [Compound 15, 5-(3-morpholino-5-((4-(trifluoromethoxy)phenyl)sulfonyl)phenyl) pyrimidin-2-amine] | 22 | 100 | 3.5 | 
Nc1ncc(-c2cc(N3CCOCC3)cc(S(=O)(=O)[C@@H]3CCOC3)c2)cn1 [Compound 52, (R)-5-(3-morpholino-5-((tetrahydrofuran-3-yl)sulfonyl)phenyl)pyrimidin-2-amine] | 0.73 | 3.46 | 0.13 | 
CC(=O)Nc1ccc(S(=O)(=O)c2cc(-c3cnc(N)nc3)cc(N3CCOCC3)c2)cc1 [Compound 22, N-(4-((3-(2-aminopyrimidin-5-yl)-5-morpholinophenyl)sulfonyl)phenyl)acetamide] | 8.69 | 39 | 2.8 | 
Nc1ncc(-c2cc(N3CCOCC3)cc(S(=O)(=O)c3cccc4ccoc34)c2)cn1 [Compound 110, 5-(3-(benzofuran-7-ylsulfonyl)-5-morpholinophenyl)pyrimidin-2-amine] | 9.9 | 8.7 | 0.40 | 
Nc1ncc(-c2cc(N3CCOCC3)cc(S(=O)(=O)C3CCOC3)c2)c(C(F)(F)F)n1 (centres unmarked) [Compound 72, 5-(3-morpholino-5-((tetrahydrofuran-3-yl)sulfonyl)phenyl)-4-(trifluoromethyl)pyrimidin-2-amine] |  | 9.13 | 0.46 | 
Nc1ncc(-c2cc(N3CCOCC3)cc(S(=O)(=O)c3ccc4c(c3)OCC4)c2)cn1 [Compound 116, 5-(3-((2,3-dihydrobenzofuran-6-yl)sulfonyl)-5-morpholinophenyl)pyrimidin-2-amine] |  | 22.9 | 2.3 | 

Continued, values first:

IC50 (mTor kinase) [µM] | IC50 [1] [µM] | PI3Ka IC50 (PI3Kα) [µM] | IC50 (PI3Kα; read-out: PI3Ka IC50) [µM] | SMILES
9.39 | 37 | 2.1 |  | Cc1ccc(S(=O)(=O)c2cc(-c3cnc(N)nc3)cc(N3CCOCC3)c2)cc1 [Compound 21, 5-(3-morpholino-5-tosylphenyl)pyrimidin-2-amine]
0.063 | 0.57 | 0.066 |  | Nc1ncc(-c2cc(S(=O)(=O)c3ccccc3)cc(N3CCOCC3)n2)cn1 [Compound 115, 5-(6-morpholino-4-(phenylsulfonyl)pyridin-2-yl)pyrimidin-2-amine]
1.75 | 0.75 | 0.023 |  | Nc1ncc(-c2cc(OC3CCOC3)cc(N3CCOCC3)n2)cn1 (centres unmarked) [Compound 130, 5-(6-morpholino-4-((tetrahydrofuran-3-yl)oxy)pyridin-2-yl)pyrimidin-2-amine]
2.98 | > 50 | 0.28 |  | Nc1ncc(-c2cc(N3CCOCC3)cc(S(=O)(=O)Cc3ccccc3F)c2)cn1 [Compound 50, 5-(3-((2-fluorobenzyl)sulfonyl)-5-morpholinophenyl)pyrimidin-2-amine]
7.9 | 13 |  | 0.37 | COc1ccc(CS(=O)(=O)c2cc(-c3cnc(N)nc3)cc(N3CCOCC3)c2)cc1 [Compound 28, 5-(3-((4-methoxybenzyl)sulfonyl)-5-morpholinophenyl)pyrimidin-2-amine]
0.37 | 0.45 | 0.075 |  | Cc1ccccc1Oc1cc(-c2cnc(N)nc2)nc(N2CCOCC2)c1 [Compound 137, 5-(6-morpholino-4-(o-tolyloxy)pyridin-2-yl)pyrimidin-2-amine]
0.27 | 0.81 | 0.21 |  | CC(c1ccccc1)c1cc(-c2cnc(N)nc2)nc(N2CCOCC2)c1 (centres unmarked) [Compound 125, 5-(6-morpholino-4-(1-phenylethyl)pyridin-2-yl)pyrimidin-2-amine]
6.39 | > 50 | 0.47 |  | Nc1ncc(-c2cc(N3CCOCC3)cc(S(=O)(=O)Cc3c[nH]c4ccccc34)c2)cn1 [48 (as a TFA salt), 5-(3-(((1H-indol-3-yl)methyl)sulfonyl)-5-morpholinophenyl)pyrimidin-2-amine]
 | 0.016 | 0.017 |  | Nc1ncc(-c2cc(S(=O)(=O)c3ccccc3Cl)cc(N3CCOCC3)n2)cn1 [Compound 139, 5-(4-((2-chlorophenyl)sulfonyl)-6-morpholinopyridin-2-yl)pyrimidin-2-amine]
 | 17.3 | 3.3 |  | Nc1ncc(-c2cc(N3CCOCC3)cc(S(=O)(=O)c3ccccc3)n2)cn1 [Compound 117, 5-(4-morpholino-6-(phenylsulfonyl)pyridin-2-yl)pyrimidin-2-amine]
